Assay results: patent US9233961B2, “Compounds and compositions for the treatment of parasitic diseases” (Novartis AG, priority 2013, dated 2016)

How the values were obtained:
[1] = system: Leishmania donovani axenic amastigote parasites; assay: Leishmania donovani axenic amastigote proliferation assay; type: cell-based; conditions: axenic amastigotes in vitro, read-out: L. donovani amastigotes EC50
Outline: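 L. donovani axenic amastigotes (9600/well) in RPMI 1640 with 20% heat-inactivated FBS, folic acid, adenosine, glucose and 25 mM MES, pH 5.5, were incubated with compounds for 2 days at 37 °C, 5% CO2. Viability read by CellTiter-Glo luminescence; EC50 calculated.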

[2] = system: L. donovani HU3 strain in mouse peritoneal macrophages; assay: Assay for proliferation of Leishmania parasites in mouse peritoneal macrophages; type: cell-based, Leishmania donovani; conditions: Leishmania donovani, Peritoneal macrophage, read-out: L. donavani Macrophage EC50
Outline: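 BALB/c peritoneal macrophages infected 24 h with L. donovani HU3 amastigotes taken from spleens of mice infected 9–11 weeks, then treated with compound for 5 days at 37° C, 5% CO2. Parasite nuclei counted by SYBR Green imaging after fixation; EC50 from percentage inhibition.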

[3] = system: Trypanosoma brucei Lister 427 strain bloodstream form; assay: Assay for proliferation of kinetoplastid parasite Trypanosoma brucei; type: cell-based; conditions: Lister 427 bloodstream form, 48 hours, read-out: T. brucei EC50
From the text: Assay for Proliferation of Kinetoplastid Parasite Trypanosoma brucei.
The proliferation is quantified by the addition of Cell Titer Glo (Promega®) a luminescent cell viability assay that measures the number of viable cells in culture based on the quantification of cellular ATP amount, which is an indicator of metabolically active cells.
The following assay illustrates the invention without in any way limiting the scope of the invention. This parasite proliferation assay measures the increase in parasite growth using an assay that measures ATP activity, Cell Titer Glo®.
Trypanosoma brucei Lister 427 strain is grown in HMI-9 Trypanosome media for T. brucei bloodstream form. 30 μl of HMI-9 media is dispensed into 384 well assay plates. 200 nl of compounds of the invention (in DMSO), including anti-trypanosome controls (Pentamidine and suramin), are then transferred into the assay plates, as well as DMSO alone to serve as a negative control for inhibition. Then 25 μl of a suspension of T. brucei culture in HMI-9 media is dispensed into the assay plates. The final concentration of parasites in culture corresponds to 1.7% of 0.5 uM ATP activity with Cell Titer Glo® in HMI-9 media. The plates are placed in a 37° C. incubator for 48 hours in an atmospheric environment containing 5% CO2. 40 μl of Cell Titer Glo® is dispensed into the plates. The plates are then read for luminescence. The percentage inhibition of 50%, EC50, is calculated for each compound.

SMILES | EC50 [1] [µM] | EC50 [2] [µM] | EC50 [3] [µM]
O=C(Nc1ccc(Cl)c(-c2nc3ncc(C(F)(F)F)cc3[nH]2)c1)C1CCCC1 [Compound 282] | 17.5 | 3.3 | 11.2
Cc1cnc2nc(-c3cc(NC(=O)Cc4ncccn4)ccc3Cl)[nH]c2c1 [Compound 145] | > 25 | > 50 | 16.1
Cc1cnc2nc(-c3cc(Nc4ccc(Cl)cc4)ccc3Cl)[nH]c2c1 [Example 256, 4-chloro-N-(4-chlorophenyl)-3-{6-methyl-1H-imidazo[4,5-b]pyridin-2-yl}aniline] | > 25 | > 50 | > 18.1
Cc1cnc2nc(-c3cc(NC(=O)Cc4ccc(OC(F)(F)F)cc4)ccc3Cl)[nH]c2c1 [Compound 121] | > 25 | > 21.2 | > 17.3
O=C(Nc1ccc(Cl)c(-c2nc3ncc(-c4ccnc(F)c4)cc3[nH]2)c1)c1ccco1 [Compound 51] | 0.175 | 0.56 | 0.0193
Cc1cnc2nc(-c3cc(NC(=O)N4CCNC4=O)ccc3Cl)[nH]c2c1 [Compound 246] | > 25 | > 50 | > 25
Cc1cnc2nc(-c3cc(NC(=O)C(F)(F)c4ccccc4)ccc3Cl)[nH]c2c1 [Compound 164] | > 25 | 23.4 | 12.6
Cc1cnc2nc(-c3cc(NC(=O)c4nc(C)n[nH]4)ccc3Cl)[nH]c2c1 [Compound 203] | > 25 | > 50 | > 25
Cc1cnc2nc(-c3cc(NC(=O)N4CCCCC4)ccc3Cl)[nH]c2c1 [Compound 239] | 13.9 | > 35.6 | 2.06
Cc1cnc2nc(-c3cc(NC(=O)Cn4cnnn4)ccc3Cl)[nH]c2c1 [Compound 170] | > 25 | > 50 | > 25
Cc1cnc2nc(-c3cc(NC(=O)Cn4ccnc4)ccc3Cl)[nH]c2c1 [Compound 197] | > 25 | > 50 | > 22.3
COc1ccc(-c2cnc3nc(-c4cc(NC(=O)c5ccco5)ccc4Cl)[nH]c3c2)c(OC)n1 [Compound 61] | 1.13 | 3.2 | 0.182
COC(=O)Nc1ccc(Cl)c(-c2nc3ncc(C)cc3[nH]2)c1 [Compound 224] | 18.7 | 11.1 | 2.61
Cc1cnc2nc(-c3cc(NC(=O)C4CCC4)ccc3Cl)[nH]c2c1 [Compound 118] | 11.1 | 21.8 | 3.2
O=C(Nc1ccc(Cl)c(-c2nc3ncc(-c4ccc(OCC5CC5)cc4)cc3[nH]2)c1)c1ccco1 [Compound 36] | 1.03 | 2.27 | 0.188
Cc1cnc2nc(-c3cc(NC(=O)c4cccc(S(C)(=O)=O)c4)ccc3Cl)[nH]c2c1 [Compound 140] | > 25 | > 50 | 6.8
CCOC(=O)Nc1ccc(Cl)c(-c2nc3ncc(C)cc3[nH]2)c1 [Compound 217] | 5.9 | 10.4 | 0.8
Cc1cnc2nc(-c3cc(NC(=O)N4CCOCC4)ccc3Cl)[nH]c2c1 [Example 237, N-(4-chloro-3-{6-methyl-1H-imidazo[4,5-b]pyridin-2-yl}phenyl)morpholine-4-carboxamide] | > 25 | > 50 | 8.7
Cc1cnc2nc(-c3cc(NS(=O)(=O)N4CCCCC4)ccc3Cl)[nH]c2c1 [Compound 254] | > 25 | > 50 | > 25
N#Cc1ccc(-c2cnc3nc(-c4cc(NC(=O)c5ccco5)ccc4Cl)[nH]c3c2)cc1 [Compound 20] | 0.239 | 1.78 | 0.054
Cc1cnc2nc(-c3cc(NC(=O)Cc4cccnc4)ccc3Cl)[nH]c2c1 [Compound 97] | > 25 | > 50 | > 18.7
CN1CCc2cc(-c3cnc4nc(-c5cc(NC(=O)c6ccco6)ccc5Cl)[nH]c4c3)ccc21 [Compound 59] | 1.34 | 3.7 | 0.143
Cc1cnc2nc(-c3cc(NC(=O)Cc4onc5ccccc45)ccc3Cl)[nH]c2c1 [Compound 146] | > 25 | 21.7 | > 14.2

SMILES | EC50 [1] [µM] | EC50 [2] [µM] | EC50 [3] [µM]
Cc1cnc2nc(-c3cc(NC(=O)C4CC(F)(F)C4)ccc3Cl)[nH]c2c1 [Compound 117] | > 25 | > 50 | > 13.5
NCc1cnc2nc(-c3cc(NC(=O)c4ccco4)ccc3Cl)[nH]c2c1 [Example 352, N-{3-[6-(aminomethyl)-1H-imidazo[4,5-b]pyridin-2-yl]-4-chlorophenyl}furan-2-carboxamide] | 0.253 | 49.5 | 0.45
Cc1cnc2nc(-c3cc(NC(=O)c4cccc(N(C)C)c4)ccc3Cl)[nH]c2c1 [Compound 184] | > 25 | > 50 | 8.4
Cc1cnc2nc(-c3cc(NC(=O)N4CCCC4)ccc3Cl)[nH]c2c1 [Compound 245] | 1.77 | 18.8 | 0.241
Cc1cnc2nc(-c3cc(Nc4cccc5c4CCN(S(C)(=O)=O)C5)ccc3Cl)[nH]c2c1 [Compound 261] | > 25 | > 50 | 15.9
COc1ccc(C(C)C(=O)Nc2ccc(Cl)c(-c3nc4ncc(C)cc4[nH]3)c2)cc1 (stereo not drawn) [Compound 165] | > 24.5 | 23.1 | > 11.7
Cc1cnc2nc(-c3cc(NC(=O)C4(C)COC4)ccc3Cl)[nH]c2c1 [Compound 163] | > 25 | > 50 | > 25
Cc1cnc2nc(-c3cc(NC(=O)Cc4ccc(C(F)(F)F)cc4)ccc3Cl)[nH]c2c1 [Compound 96] | > 25 | 20.7 | 8.9
Cc1cnc2nc(-c3cc(NC(=O)C(c4ccccc4)C(C)C)ccc3Cl)[nH]c2c1 (stereo not drawn) [Compound 160] | > 24.6 | 20.3 | 12.4
Cc1cnc2nc(-c3cc(N4CCOCC4)ccc3Cl)[nH]c2c1 [Compound 257] | > 25 | > 50 | > 25
Cc1cnc2nc(-c3cc(NC(=O)Cc4ccc(F)c(F)c4)ccc3Cl)[nH]c2c1 [Compound 142] | > 25 | 20.7 | > 14
COc1ccnc(C(=O)Nc2ccc(Cl)c(-c3nc4ncc(C)cc4[nH]3)c2)c1 [Compound 173] | > 25 | 18.1 | > 13.8
Cc1cnc2nc(-c3cc(NC(=O)Cc4cccc(F)c4F)ccc3Cl)[nH]c2c1 [Example 78, N-(4-chloro-3-{6-methyl-1H-imidazo[4,5-b]pyridin-2-yl}phenyl)-2-(2,3-difluorophenyl)acetamide] | > 25 | > 50 | > 6.6
Cc1cnc2nc(-c3cc(NC(=O)c4nc(C)cs4)ccc3Cl)[nH]c2c1 [Compound 80] | 5.9 | 18.5 | 0.61
O=C1Cc2cc(-c3cnc4nc(-c5cc(NC(=O)c6ccco6)ccc5Cl)[nH]c4c3)ccc2N1 [Compound 43] | 0.73 | 6.9 | 0.0216
COc1ccc(-c2cnc3nc(-c4cc(NC(=O)c5ccco5)ccc4Cl)[nH]c3c2)cc1Cl [Compound 48] | 0.53 | 8 | 0.076
CN1CCOc2cc(-c3cnc4nc(-c5cc(NC(=O)c6ccco6)ccc5Cl)[nH]c4c3)ccc21 [Compound 72] | 0.67 | 3.2 | 0.073
Cc1cnc2nc(-c3cc(NC(=O)c4ccc(C(F)(F)F)cn4)ccc3Cl)[nH]c2c1 [Compound 115] | 16.8 | 25.3 | 2.6
Cc1cnc2nc(-c3cc(NC(=O)OCC(F)(F)F)ccc3Cl)[nH]c2c1 [Compound 225] | > 25 | > 50 | > 25
Cc1cnc2nc(-c3cc(Nc4ccc(-n5cncn5)nc4)ccc3Cl)[nH]c2c1 [Compound 258] | > 25 | > 50 | > 15.4
CNc1ccc(-c2cnc3nc(-c4cc(NC(=O)c5cscn5)ccc4Cl)[nH]c3c2)cc1 [Compound 349] | 1.35 | 2.69 | 0.171
Cc1cnc2nc(-c3cc(NC(=O)c4cnc(C)cn4)ccc3Cl)[nH]c2c1 [Compound 178] | 23.8 | > 50 | 15.2
N#Cc1cnc2nc(-c3cc(NC(=O)c4ccco4)ccc3Cl)[nH]c2c1 [Example 286, N-(4-chloro-3-{6-cyano-1H-imidazo[4,5-b]pyridin-2-yl}phenyl)furan-2-carboxamide] | 0.61 | 7.1 | 0.164
